Results: the NIST ThermoML archive (doi:10.1016/j.fluid.2019.06.022)
“And” between values parts separate entries of the source, which are not always exact repeats. Identical values can stand only once.

Test: xn = mol fraction of the nth substance listed
Conditions: Liquid; for mass density: Bellows volumetry; for viscosity: Falling or rolling sphere viscometry

C=CC [propene] + Cc1ccccc1
Conditions	mass density, x1 = 0.0787	mass density, x1 = 0.3073	viscosity, x1 = 0.0787	viscosity, x1 = 0.3073
294.8 K, 16200 kPa	839.2 kg/m3	–	0.656 mPa·s and 0.638 mPa·s	–
294.8 K, 27900 kPa	847.6 kg/m3	–	0.7 mPa·s and 0.696 mPa·s	–
294.8 K, 28000 kPa	847.6 kg/m3	–	0.689 mPa·s	–
294.8 K, 28100 kPa	847.6 kg/m3	–	0.696 mPa·s	–
294.8 K, 28200 kPa	849.8 kg/m3	–	0.694 mPa·s and 0.693 mPa·s	–
294.8 K, 40900 kPa	855.9 kg/m3	–	0.77 mPa·s and 0.772 mPa·s	–
294.8 K, 56200 kPa	864.7 kg/m3	–	0.856 mPa·s	–
294.8 K, 56300 kPa	864.7 kg/m3	–	0.854 mPa·s	–
297.5 K, 3700 kPa	–	753 kg/m3	–	0.356 mPa·s and 0.355 mPa·s
297.5 K, 10800 kPa	–	759 kg/m3	–	0.371 mPa·s
297.5 K, 10900 kPa	–	759 kg/m3	–	0.363 mPa·s
297.5 K, 20700 kPa	–	766.9 kg/m3	–	0.399 mPa·s and 0.4 mPa·s
297.5 K, 21200 kPa	–	767.5 kg/m3	–	0.408 mPa·s and 0.412 mPa·s
297.5 K, 30500 kPa	–	774.9 kg/m3	–	0.439 mPa·s
297.5 K, 30600 kPa	–	774.9 kg/m3	–	0.44 mPa·s
297.5 K, 30700 kPa	–	774.9 kg/m3	–	0.431 mPa·s and 0.433 mPa·s
297.5 K, 48400 kPa	–	787.8 kg/m3	–	0.491 mPa·s
297.5 K, 48500 kPa	–	787.8 kg/m3	–	0.49 mPa·s
297.5 K, 69000 kPa	–	800.9 kg/m3	–	0.555 mPa·s
297.5 K, 69100 kPa	–	800.9 kg/m3	–	0.552 mPa·s
323.1 K, 3300 kPa	–	728.4 kg/m3	–	0.276 mPa·s
323.1 K, 3700 kPa	–	728.4 kg/m3	–	0.277 mPa·s
323.1 K, 10200 kPa	–	736.3 kg/m3	–	0.294 mPa·s
323.1 K, 11000 kPa	–	736.3 kg/m3	–	0.295 mPa·s
323.1 K, 21100 kPa	–	747.5 kg/m3	–	0.319 mPa·s
323.1 K, 21200 kPa	–	747.5 kg/m3	–	0.316 mPa·s
323.1 K, 35000 kPa	–	758.2 kg/m3	–	0.363 mPa·s
323.1 K, 35100 kPa	–	758.2 kg/m3	–	0.36 mPa·s and 0.352 mPa·s
323.1 K, 35200 kPa	–	758.2 kg/m3	–	0.35 mPa·s
323.1 K, 48500 kPa	–	768.2 kg/m3	–	0.389 mPa·s and 0.385 mPa·s
323.1 K, 68900 kPa	–	782.5 kg/m3	–	0.441 mPa·s and 0.442 mPa·s
325.2 K, 7100 kPa	808.6 kg/m3	–	0.423 mPa·s	–
325.2 K, 7400 kPa	808.6 kg/m3	–	0.421 mPa·s	–
325.2 K, 13900 kPa	814.5 kg/m3	–	0.435 mPa·s	–
325.2 K, 14200 kPa	814.2 kg/m3	–	0.44 mPa·s	–
325.2 K, 20600 kPa	819.6 kg/m3	–	0.468 mPa·s and 0.467 mPa·s	–
325.2 K, 26900 kPa	824.5 kg/m3	–	0.493 mPa·s	–
325.2 K, 27100 kPa	824.5 kg/m3	–	0.495 mPa·s	–
325.2 K, 40500 kPa	833.6 kg/m3	–	0.543 mPa·s and 0.534 mPa·s	–
325.2 K, 40700 kPa	833.6 kg/m3	–	0.542 mPa·s and 0.533 mPa·s	–
325.2 K, 51500 kPa	840.7 kg/m3	–	0.58 mPa·s	–
325.2 K, 51600 kPa	840.7 kg/m3	–	0.584 mPa·s and 0.589 mPa·s	–
325.2 K, 51900 kPa	840.7 kg/m3	–	0.583 mPa·s	–
325.2 K, 67700 kPa	850.9 kg/m3	–	0.644 mPa·s	–
325.2 K, 67900 kPa	850.9 kg/m3	–	0.645 mPa·s	–
325.2 K, 68000 kPa	850.9 kg/m3	–	0.645 mPa·s and 0.661 mPa·s	–
373.4 K, 3400 kPa	–	677.6 kg/m3	–	0.179 mPa·s
373.4 K, 3500 kPa	–	677.6 kg/m3	–	0.177 mPa·s
373.4 K, 6700 kPa	–	682.7 kg/m3	–	0.185 mPa·s
373.4 K, 6800 kPa	–	682.7 kg/m3	–	0.186 mPa·s
373.4 K, 17500 kPa	–	697.6 kg/m3	–	0.206 mPa·s and 0.207 mPa·s
373.4 K, 27500 kPa	–	710.3 kg/m3	–	0.225 mPa·s
373.4 K, 27700 kPa	–	710.2 kg/m3	–	0.224 mPa·s
373.4 K, 39100 kPa	–	722.7 kg/m3	–	0.244 mPa·s
373.4 K, 39200 kPa	–	722.7 kg/m3	–	0.243 mPa·s
373.4 K, 39300 kPa	–	722.7 kg/m3	–	0.246 mPa·s
373.4 K, 39600 kPa	–	722.7 kg/m3	–	0.247 mPa·s
373.4 K, 54700 kPa	–	737.2 kg/m3	–	0.27 mPa·s
373.4 K, 54800 kPa	–	737.2 kg/m3	–	0.271 mPa·s
373.4 K, 69000 kPa	–	748.6 kg/m3	–	0.297 mPa·s
373.4 K, 69100 kPa	–	748.6 kg/m3	–	0.296 mPa·s
376.9 K, 2400 kPa	759.5 kg/m3	–	0.252 mPa·s	–
376.9 K, 3100 kPa	760.8 kg/m3	–	0.253 mPa·s	–
376.9 K, 3200 kPa	760.8 kg/m3	–	0.252 mPa·s	–
376.9 K, 3900 kPa	762.5 kg/m3	–	0.26 mPa·s	–
376.9 K, 8400 kPa	767 kg/m3	–	0.264 mPa·s	–
376.9 K, 8500 kPa	767 kg/m3	–	0.267 mPa·s	–
376.9 K, 8600 kPa	767 kg/m3	–	0.267 mPa·s	–
376.9 K, 8700 kPa	767.3 kg/m3	–	0.269 mPa·s	–
376.9 K, 14300 kPa	774.1 kg/m3	–	0.282 mPa·s	–
376.9 K, 14600 kPa	774.1 kg/m3	–	0.283 mPa·s	–
376.9 K, 26800 kPa	786.3 kg/m3	–	0.314 mPa·s	–
376.9 K, 27000 kPa	786.3 kg/m3	–	0.312 mPa·s	–
376.9 K, 27200 kPa	786.6 kg/m3	–	0.312 mPa·s	–
376.9 K, 27400 kPa	786.6 kg/m3	–	0.317 mPa·s and 0.312 mPa·s	–
376.9 K, 27600 kPa	786.6 kg/m3	–	0.317 mPa·s	–
376.9 K, 41000 kPa	799.3 kg/m3 and 798.4 kg/m3	–	0.352 mPa·s and 0.349 mPa·s	–
376.9 K, 41200 kPa	798.4 kg/m3 and 799.3 kg/m3	–	0.345 mPa·s and 0.353 mPa·s	–
376.9 K, 55500 kPa	810.5 kg/m3	–	0.376 mPa·s	–
376.9 K, 55800 kPa	810.5 kg/m3	–	0.386 mPa·s	–
376.9 K, 68600 kPa	819.9 kg/m3	–	0.419 mPa·s	–
376.9 K, 68900 kPa	819.9 kg/m3	–	0.418 mPa·s	–
440.5 K, 3600 kPa	–	599.7 kg/m3	–	0.12 mPa·s and 0.121 mPa·s
440.5 K, 7500 kPa	–	612.2 kg/m3	–	0.129 mPa·s
440.5 K, 7600 kPa	–	612.2 kg/m3	–	0.129 mPa·s
440.5 K, 20300 kPa	–	642.2 kg/m3	–	0.15 mPa·s
440.5 K, 37200 kPa	–	669.5 kg/m3	–	0.176 mPa·s and 0.177 mPa·s
440.5 K, 37400 kPa	–	669.5 kg/m3	–	0.174 mPa·s
440.5 K, 37500 kPa	–	669.5 kg/m3	–	0.178 mPa·s
440.5 K, 50100 kPa	–	683.9 kg/m3	–	0.195 mPa·s
440.5 K, 50200 kPa	–	683.8 kg/m3	–	0.193 mPa·s
440.5 K, 68600 kPa	–	703.5 kg/m3	–	0.221 mPa·s
440.5 K, 68700 kPa	–	703.5 kg/m3	–	0.222 mPa·s
443 K, 3200 kPa	691.9 kg/m3	–	0.152 mPa·s	–
443 K, 3300 kPa	691.6 kg/m3	–	0.151 mPa·s	–
443 K, 10500 kPa	706.3 kg/m3	–	0.17 mPa·s and 0.166 mPa·s	–
443 K, 15100 kPa	714.5 kg/m3	–	0.178 mPa·s	–
443 K, 15300 kPa	714.5 kg/m3	–	0.178 mPa·s	–
443 K, 27100 kPa	732.1 kg/m3	–	0.201 mPa·s	–
443 K, 27200 kPa	732.1 kg/m3	–	0.2 mPa·s and 0.201 mPa·s	–
443 K, 27300 kPa	731.8 kg/m3	–	0.201 mPa·s	–
443 K, 37600 kPa	745.3 kg/m3	–	0.221 mPa·s	–
443 K, 37800 kPa	745.3 kg/m3	–	0.218 mPa·s	–
443 K, 47900 kPa	756.2 kg/m3	–	0.243 mPa·s and 0.244 mPa·s	–
443 K, 64800 kPa	772.1 kg/m3	–	0.271 mPa·s	–
443 K, 65000 kPa	772.4 kg/m3	–	0.271 mPa·s	–
529.2 K, 35300 kPa	–	593.8 kg/m3	–	0.119 mPa·s and 0.12 mPa·s
529.2 K, 49000 kPa	–	619 kg/m3 and 619.1 kg/m3	–	0.132 mPa·s and 0.135 mPa·s
529.2 K, 68500 kPa	–	647.6 kg/m3	–	0.156 mPa·s
529.2 K, 68600 kPa	–	647.5 kg/m3	–	0.153 mPa·s
531.1 K, 7200 kPa	599.1 kg/m3	–	0.091 mPa·s	–
531.1 K, 19200 kPa	641.3 kg/m3	–	0.114 mPa·s	–
531.1 K, 19400 kPa	641.1 kg/m3	–	0.113 mPa·s	–
531.1 K, 31900 kPa	669.1 kg/m3 and 669.7 kg/m3 and 669.3 kg/m3	–	0.133 mPa·s and 0.134 mPa·s	–
531.1 K, 32000 kPa	670.2 kg/m3	–	0.133 mPa·s	–
531.1 K, 32100 kPa	670 kg/m3	–	0.131 mPa·s	–
531.1 K, 32200 kPa	670.2 kg/m3	–	0.136 mPa·s	–
531.1 K, 41400 kPa	685 kg/m3	–	0.148 mPa·s	–
531.1 K, 41500 kPa	685 kg/m3 and 685.2 kg/m3	–	0.145 mPa·s and 0.148 mPa·s	–
531.1 K, 41600 kPa	685.2 kg/m3	–	0.146 mPa·s	–
531.1 K, 53300 kPa	702.3 kg/m3 and 701.5 kg/m3	–	0.165 mPa·s	–
531.1 K, 53400 kPa	701.7 kg/m3 and 702.5 kg/m3	–	0.164 mPa·s and 0.165 mPa·s	–
531.1 K, 67100 kPa	718.1 kg/m3	–	0.18 mPa·s	–
531.1 K, 67200 kPa	718.6 kg/m3	–	0.179 mPa·s	–
